pEC50: −log10 of the molar value.
Biological target: T1, human APJ receptor (Homo sapiens, UniProt P35414)
T1 construct: expressed in transfected cells; host or cells: HEK293
T1 sequence (P35414 1-380): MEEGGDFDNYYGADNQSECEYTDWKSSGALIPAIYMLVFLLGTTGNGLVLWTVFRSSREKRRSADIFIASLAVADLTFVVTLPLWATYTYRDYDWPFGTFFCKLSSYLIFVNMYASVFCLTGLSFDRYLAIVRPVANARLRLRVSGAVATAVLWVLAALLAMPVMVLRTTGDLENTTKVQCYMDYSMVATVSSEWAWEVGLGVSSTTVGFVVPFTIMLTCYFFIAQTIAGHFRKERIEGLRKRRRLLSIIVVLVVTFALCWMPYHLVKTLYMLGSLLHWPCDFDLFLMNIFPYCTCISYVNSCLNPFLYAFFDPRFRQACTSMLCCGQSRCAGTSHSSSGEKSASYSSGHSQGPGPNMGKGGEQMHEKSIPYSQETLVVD
Assay: Intracellular cAMP Accumulation Assay (APJ hcAMP, HTRF)
Type: cell-based
Details: human APJ, cAMP accumulation; potency range class; read-out: hAPJ cAMP EC50 Potency range
In short: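 Stably transfected HEK293 cells (5,000/well) incubated 30 min at room temperature with serially diluted compound, […] and 2 μM forskolin. cAMP measured by HTRF after 60 min with detection reagents, quantified against a cAMP standard curve; EC50 from variable-slope sigmoidal fit of inhibition of forskolin-stimulated cAMP.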

pEC50 | SMILES
8.00 to 11.00 | COc1cccc(OC)c1-n1c(-c2ccc(C)nc2)nc(=O)c(C(=O)N2CCC(c3c(F)cccc3F)C2)c1O (single isomer, unassigned) [Example 252, 5-[3-(2,6-difluorophenyl)pyrrolidine-1-carbonyl]-1-(2,6-dimethoxyphenyl)-6-hydroxy-2-(6-methylpyridin-3-yl)-1,4-dihydropyrimidin-4-one]
8.00 to 11.00 | CCCCc1nc(=O)c(C(=O)N2CCC(c3ncc(F)cc3F)C2)c(O)n1[C@H](c1cccc(C#N)c1)C1CC1 (stereo partly drawn) [Example 351, 3-[(S)-{2-butyl-5-[3-(3,5-difluoropyridin-2-yl)pyrrolidine-1-carbonyl]-4-hydroxy-6-oxo-1,6-dihydropyrimidin-1-yl}(cyclopropyl)methyl]benzonitrile]
8.00 to 11.00 | CCCCc1nc(=O)c(C(=O)N2CCN(Cc3cccc(Cl)c3Cl)CC2)c(O)n1-c1c(OC)cccc1OC [Example 355, 2-butyl-5-(4-(2,3-dichlorobenzyl)piperazine-1-carbonyl)-1-(2,6-dimethoxyphenyl)-6-hydroxypyrimidin-4(1H)-one0.011]

Same assay, conditions: human APJ, intracellular cAMP accumulation; read-out: hAPJ cAMP EC50 Potency range

pEC50 | SMILES
8.00 to 11.00 | CC[C@@H](c1cc(F)cc(F)c1)n1c(-c2cnn(C)c2)nc(=O)c(C(=O)N2CCC(c3ncc(F)cc3F)C2)c1O (single isomer, unassigned) [Example 182]
8.00 to 11.00 | COc1cccc(OC)c1-n1c(COC(C)C)nc(=O)c(C(=O)N2CCC(c3cccc(F)c3)C2)c1O (single isomer, unassigned) [Example 95, 1-(2,6-dimethoxyphenyl)-5-[3-(3-fluorophenyl)pyrrolidine-1-carbonyl]-6-hydroxy-2-[(propan-2-yloxy)methyl]-1,4-dihydropyrimidin-4-one]
8.00 to 11.00 | CCOCc1nc(=O)c(C(=O)N2CCC(c3cccc(F)c3)C2)c(O)n1-c1c(OC)cccc1OC (single isomer, unassigned) [Example 83, 1-(2,6-dimethoxyphenyl)-2-(ethoxymethyl)-5-[3-(3-fluorophenyl)pyrrolidine-1-carbonyl]-6-hydroxy-1,4-dihydropyrimidin-4-one]
8.00 to 11.00 | COc1cccc(OC)c1-n1c(CCC(C)C)nc(=O)c(C(=O)N2CC[C@H](c3ccccc3)C2)c1O [Example 14, (R)-1-(2,6-dimethoxyphenyl)-6-hydroxy-2-isopentyl-5-(3-phenylpyrrolidine-1-carbonyl)pyrimidin-4(1H)-one]
8.00 to 11.00 | COc1cccc(OC)c1-n1c(COC(C)C)nc(=O)c(C(=O)N2CCC(c3ccc(F)cc3)C2)c1O (single isomer, unassigned) [Example 102, 1-(2,6-dimethoxyphenyl)-5-[3-(4-fluorophenyl)pyrrolidine-1-carbonyl]-6-hydroxy-2-[(propan-2-yloxy)methyl]-1,4-dihydropyrimidin-4-one]
8.00 to 11.00 | COc1cccc(OC)c1-n1c(CCC2CC2)nc(=O)c(C(=O)N2CCC(c3ncccc3F)C2)c1O (single isomer, unassigned) [Example 178, 2-(2-cyclopropylethyl)-1-(2,6-dimethoxyphenyl)-5-[3-(3-fluoropyridin-2-yl)pyrrolidine-1-carbonyl]-6-hydroxy-1,4-dihydropyrimidin-4-one]
8.00 to 11.00 | COc1cccc(OC)c1-n1c(COC(C)C)nc(=O)c(C(=O)N2CCC(c3ccc(F)cc3F)C2)c1O (single isomer, unassigned) [Example 162, 5-[3-(2,4-difluorophenyl)pyrrolidine-1-carbonyl]-1-(2,6-dimethoxyphenyl)-6-hydroxy-2-[(propan-2-yloxy)methyl]-1,4-dihydropyrimidin-4-one]

Same assay, conditions: read-out: hAPJ cAMP EC50 Potency range

pEC50 | SMILES
8.00 to 11.00 | CCOCc1nc(=O)c(C(=O)N2CCC(c3ccccc3F)CC2)c(O)n1-c1c(OC)cccc1OC [Example 379, 1-(2,6-dimethoxyphenyl)-2-(ethoxymethyl)-5-(4-(2-fluorophenyl)piperidine-1-carbonyl)-6-hydroxypyrimidin-4(1H)-one]

From patent US10590113B2, “6-hydroxy-4-oxo-1,4-dihydropyrimidine-5-carboxamides as APJ agonists” (priority 2016, dated 2020)
